# Measured values published in patent US8981150B2 (priority 2009, dated 2015).
# Assay: Solubility in water
row,SMILES,Solubility in water (% w/w)
1,CCCCC(OC)C(=O)N(C)C (stereo not shown) [Product 4],<0.05
2,CCCCC(OCC)C(=O)N(C)C (stereo not shown) [Product 5],<0.05
3,CCCC(OC)C(=O)N(C)C (stereo not shown) [Product 6],<0.1
4,CCCC(OCC)C(=O)N(C)C (stereo not shown) [Product 7],<0.1
